According to ChEMBL document CHEMBL1201862, “PubChem BioAssay data set” (2004):
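Where inhibition never reached the appropriate level, the endpoint shown equals the highest concentration tested. Otherwise, values were interpolated linearly from a five-concentration, 48-hour dose response in 96-well plates. Abbreviation: GI50, concentration required for 50% inhibition of growth.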 Calls of active or inactive are those of the source. Cut-off read from the data, not from the text of the source: active = GI50 up to about 1.1 µM and inactive = higher.

How the values were obtained:
Assay in all cases: NCI anticancer screen, dose series, 48 h
[1] = tested on: NCI-H226
[2] = tested on: SF-268
[3] = tested on: SK-OV-3
[4] = tested on: UO-31
[5] = tested on: HCT-116
[6] = tested on: HL-60
[7] = tested on: CCRF-CEM
[8] = tested on: SNB-75
[9] = tested on: UACC-62
[10] = tested on: OVCAR-5
[11] = tested on: HOP-62
[12] = tested on: U-251
[13] = tested on: SK-MEL-2
[14] = tested on: K562
[15] = tested on: OVCAR-8
[16] = tested on: SN12C
[17] = tested on: SF-295
[18] = tested on: A549
[19] = tested on: CAKI-1
[20] = tested on: HOP-92

| SMILES | GI50 [1] | GI50 [2] | GI50 [3] | GI50 [4] | GI50 [5] | GI50 [6] | GI50 [7] | GI50 [8] | GI50 [9] | GI50 [10] | GI50 [11] | GI50 [12] | GI50 [13] | GI50 [14] | GI50 [15] | GI50 [16] | GI50 [17] | GI50 [18] | GI50 [19] | GI50 [20] |
| --- | --- | --- | --- | --- | --- | --- | --- | --- | --- | --- | --- | --- | --- | --- | --- | --- | --- | --- | --- | --- |
| CC1CN=C(Nc2cccc(C(F)(F)F)c2)S1 (stereo not given) | 79.3 µM (inactive) | 44 µM (inactive) | 94.4 µM (inactive) | 27.5 µM (inactive) | 41.7 µM (inactive) | 20.7 µM (inactive) | 31.9 µM (inactive) | 88.1 µM (inactive) | 97.3 µM (inactive) | > 100 µM (inactive) | 95.3 µM (inactive) | 54.7 µM (inactive) | 77.6 µM (inactive) | 30.4 µM (inactive) | – | – | – | – | – | – |
| Nc1nc(=O)n(CC(O)CO)s1 (stereo not given) | > 100 µM (inactive) | > 100 µM (inactive) | – | > 100 µM (inactive) | > 100 µM (inactive) | > 100 µM (inactive) | > 100 µM (inactive) | > 100 µM (inactive) | > 100 µM (inactive) | > 100 µM (inactive) | > 100 µM (inactive) | > 100 µM (inactive) | > 100 µM (inactive) | > 100 µM (inactive) | > 100 µM (inactive) | > 100 µM (inactive) | > 100 µM (inactive) | > 100 µM (inactive) | – | – |
| CC(C)(C)[Si](C)(C)OCCOCn1cc(F)c(=O)[nH]c1=O | > 100 µM (inactive) | > 100 µM (inactive) | > 100 µM (inactive) | > 100 µM (inactive) | > 100 µM (inactive) | > 100 µM (inactive) | > 100 µM (inactive) | > 100 µM (inactive) | > 100 µM (inactive) | > 100 µM (inactive) | > 100 µM (inactive) | > 100 µM (inactive) | > 100 µM (inactive) | > 100 µM (inactive) | > 100 µM (inactive) | > 100 µM (inactive) | > 100 µM (inactive) | > 100 µM (inactive) | > 100 µM (inactive) | – |
| CC(C)(C)[Si](OC1CC(n2cnc3c(N)ncnc32)OC1CO)(c1ccccc1)c1ccccc1 (stereo not given) | 12.4 µM (inactive) | 16.1 µM (inactive) | 14.9 µM (inactive) | 23.7 µM (inactive) | 17.2 µM (inactive) | 41.4 µM (inactive) | 12.9 µM (inactive) | – | – | 18.6 µM (inactive) | 22.5 µM (inactive) | 17.1 µM (inactive) | 18.8 µM (inactive) | 17.1 µM (inactive) | 18.9 µM (inactive) | 20.9 µM (inactive) | 15 µM (inactive) | 15.2 µM (inactive) | – | 20.2 µM (inactive) |
| COc1ccc(-c2cc(-c3ccccc3)c(C#N)c(=O)n2C2OC(CO)C(O)C(O)C2O)cc1 (stereo not given) | > 100 µM (inactive) | > 100 µM (inactive) | > 100 µM (inactive) | > 100 µM (inactive) | > 100 µM (inactive) | > 100 µM (inactive) | > 100 µM (inactive) | – | > 100 µM (inactive) | > 100 µM (inactive) | > 100 µM (inactive) | > 100 µM (inactive) | – | > 100 µM (inactive) | > 100 µM (inactive) | > 100 µM (inactive) | > 100 µM (inactive) | > 100 µM (inactive) | – | – |
| NC(=O)NN=C(CS)CS | – | 34.8 µM (inactive) | 89.3 µM (inactive) | 18.8 µM (inactive) | 38.5 µM (inactive) | 0.41 µM (active) | 36.9 µM (inactive) | 33 µM (inactive) | 25.3 µM (inactive) | 24.1 µM (inactive) | 0.492 µM (active) | 21.6 µM (inactive) | 20.8 µM (inactive) | 51.1 µM (inactive) | 27.5 µM (inactive) | 24.2 µM (inactive) | 23.7 µM (inactive) | 22 µM (inactive) | 23.6 µM (inactive) | 21.9 µM (inactive) |
| COc1ccc(N2C(=O)CSC2c2c[nH]c3ccccc23)cc1 (stereo not given) | – | > 100 µM (inactive) | > 100 µM (inactive) | 49.8 µM (inactive) | 59.2 µM (inactive) | 23.6 µM (inactive) | 39.5 µM (inactive) | > 100 µM (inactive) | 44.9 µM (inactive) | > 100 µM (inactive) | > 100 µM (inactive) | 88.7 µM (inactive) | – | 26.2 µM (inactive) | 60 µM (inactive) | > 100 µM (inactive) | 44.9 µM (inactive) | – | – | 52.7 µM (inactive) |
| O=C1CC(=O)N(c2ccccc2)N1/C(=C/c1ccccc1)c1ccccc1 | 21.9 µM (inactive) | 16.2 µM (inactive) | 25.6 µM (inactive) | 15.7 µM (inactive) | 16 µM (inactive) | – | 0.336 µM (active) | 22 µM (inactive) | 16.3 µM (inactive) | 29.2 µM (inactive) | 18.5 µM (inactive) | 14.3 µM (inactive) | 23.7 µM (inactive) | 1.54 µM (inactive) | 19.8 µM (inactive) | 20.5 µM (inactive) | 17.3 µM (inactive) | 26.1 µM (inactive) | 17.3 µM (inactive) | 13.2 µM (inactive) |
| CCOC(=O)[C@H]1Nc2c(cccc2[N+](=O)[O-])[C@H]2OCC[C@@H]12 | > 100 µM (inactive) | > 100 µM (inactive) | – | > 100 µM (inactive) | > 100 µM (inactive) | – | – | > 100 µM (inactive) | > 100 µM (inactive) | > 100 µM (inactive) | > 100 µM (inactive) | > 100 µM (inactive) | > 100 µM (inactive) | > 100 µM (inactive) | > 100 µM (inactive) | > 100 µM (inactive) | > 100 µM (inactive) | > 100 µM (inactive) | > 100 µM (inactive) | – |
| CN1C(=O)[C@@H]2[C@@H]3c4ccccc4N[C@@H]3c3[nH]c4ccccc4c3[C@@H]2C1=O | 60.8 µM (inactive) | 32.6 µM (inactive) | 26.1 µM (inactive) | 14.7 µM (inactive) | 29.4 µM (inactive) | – | 17.3 µM (inactive) | 31.6 µM (inactive) | 14.5 µM (inactive) | 20.1 µM (inactive) | 19.5 µM (inactive) | 23.8 µM (inactive) | 17.3 µM (inactive) | 22.3 µM (inactive) | 21.6 µM (inactive) | 29.5 µM (inactive) | 18.6 µM (inactive) | 22.8 µM (inactive) | 33.2 µM (inactive) | 20 µM (inactive) |
| CCSc1nc(N)c2c(-c3ccccc3)c3c(nc2n1)CCC3 | – | > 100 µM (inactive) | > 100 µM (inactive) | 2.59 µM (inactive) | > 100 µM (inactive) | > 100 µM (inactive) | > 100 µM (inactive) | > 100 µM (inactive) | > 100 µM (inactive) | 9.91 µM (inactive) | > 100 µM (inactive) | > 100 µM (inactive) | – | > 100 µM (inactive) | > 100 µM (inactive) | > 100 µM (inactive) | > 100 µM (inactive) | 4.56 µM (inactive) | > 100 µM (inactive) | – |
| CC(C)(Br)C(Br)CCC(C)(Br)C(Br)CO (stereo not given) | > 10 µM (inactive) | > 10 µM (inactive) | > 10 µM (inactive) | > 10 µM (inactive) | > 10 µM (inactive) | – | > 10 µM (inactive) | > 10 µM (inactive) | – | – | > 10 µM (inactive) | > 10 µM (inactive) | – | > 10 µM (inactive) | > 10 µM (inactive) | > 10 µM (inactive) | > 10 µM (inactive) | > 10 µM (inactive) | > 10 µM (inactive) | > 10 µM (inactive) |
| Cc1cnc(SCCN2CCN(C)CC2)nc1-c1cc2ccccc2s1 | 11.9 µM (inactive) | – | 3.77 µM (inactive) | 7.78 µM (inactive) | 11.4 µM (inactive) | – | 3.18 µM (inactive) | 12.2 µM (inactive) | 16.2 µM (inactive) | > 10 µM (inactive) | 0.155 µM (active) | 8.36 µM (inactive) | 16.1 µM (inactive) | – | 12.6 µM (inactive) | 9.02 µM (inactive) | 9.14 µM (inactive) | 4.62 µM (inactive) | 1.51 µM (inactive) | 5.53 µM (inactive) |
| Cc1cccc(C)c1NC(=S)N/C=C(\C#N)C(N)=O | > 100 µM (inactive) | > 100 µM (inactive) | > 100 µM (inactive) | > 100 µM (inactive) | > 100 µM (inactive) | – | > 100 µM (inactive) | – | > 100 µM (inactive) | > 100 µM (inactive) | > 100 µM (inactive) | > 100 µM (inactive) | > 100 µM (inactive) | > 100 µM (inactive) | > 100 µM (inactive) | > 100 µM (inactive) | > 100 µM (inactive) | > 100 µM (inactive) | > 100 µM (inactive) | > 100 µM (inactive) |
| O1C2C1C1OC1C1OC1C1OC21 (stereo not given) | > 100 µM (inactive) | > 100 µM (inactive) | > 100 µM (inactive) | > 100 µM (inactive) | > 100 µM (inactive) | – | – | 11.6 µM (inactive) | > 100 µM (inactive) | > 100 µM (inactive) | > 100 µM (inactive) | > 100 µM (inactive) | > 100 µM (inactive) | > 100 µM (inactive) | > 100 µM (inactive) | > 100 µM (inactive) | > 100 µM (inactive) | > 100 µM (inactive) | > 100 µM (inactive) | > 100 µM (inactive) |
| CCN(CC)c1ccc2cc(C(=O)Nc3ccc4[nH]c(C(=O)N5C[C@@H](CCl)c6c5cc(OC(=O)Nc5ccccc5)c5[nH]cc(C)c65)cc4c3)oc2c1 [CARZELESIN] | – | 0.00021 µM (active) | 0.00042 µM (active) | 668 µM (inactive) | 152 µM (inactive) | 0.000282 µM (active) | 0.000168 µM (active) | 284 µM (inactive) | 4.61e-05 µM (active) | 0.000601 µM (active) | 0.000171 µM (active) | – | 0.000601 µM (active) | 0.000556 µM (active) | 234 µM (inactive) | 552 µM (inactive) | – | 0.000162 µM (active) | 5.28e-05 µM (active) | > 1000 µM (inactive) |
